Measurements published in PMC3703287, “Analgesic effect of a mixed T-type channel inhibitor/CB2 receptor agonist” (Molecular Pain, 2013).

What was measured:
[1] = biological target: T1, human CB2 receptor (Homo sapiens, UniProt P34972); assay: [3H]CP55940 radioligand competition, membranes of HEK293 cells expressing human CB2; low-efficacy agonist in GTPγ[…] assay ([…] at […]); format: binding
T1 construct: gene CNR2

[2] = biological target: T2, CaV3.1 (Homo sapiens, UniProt O43497); assay: whole-cell patch clamp, […] NMP-181, tsA-201 cells transiently expressing human CaV3.[…]; format: cell-based
T2 construct: gene CACNA1G; α1 subunit

[3] = biological target: T3, CaV3.2 (Homo sapiens, UniProt O95180); assay: whole-cell patch clamp, tsA-201 cells transiently expressing human CaV3.[…]; format: cell-based
T3 construct: gene CACNA1H; α1 subunit
T3 sequence (O95180 whole entry): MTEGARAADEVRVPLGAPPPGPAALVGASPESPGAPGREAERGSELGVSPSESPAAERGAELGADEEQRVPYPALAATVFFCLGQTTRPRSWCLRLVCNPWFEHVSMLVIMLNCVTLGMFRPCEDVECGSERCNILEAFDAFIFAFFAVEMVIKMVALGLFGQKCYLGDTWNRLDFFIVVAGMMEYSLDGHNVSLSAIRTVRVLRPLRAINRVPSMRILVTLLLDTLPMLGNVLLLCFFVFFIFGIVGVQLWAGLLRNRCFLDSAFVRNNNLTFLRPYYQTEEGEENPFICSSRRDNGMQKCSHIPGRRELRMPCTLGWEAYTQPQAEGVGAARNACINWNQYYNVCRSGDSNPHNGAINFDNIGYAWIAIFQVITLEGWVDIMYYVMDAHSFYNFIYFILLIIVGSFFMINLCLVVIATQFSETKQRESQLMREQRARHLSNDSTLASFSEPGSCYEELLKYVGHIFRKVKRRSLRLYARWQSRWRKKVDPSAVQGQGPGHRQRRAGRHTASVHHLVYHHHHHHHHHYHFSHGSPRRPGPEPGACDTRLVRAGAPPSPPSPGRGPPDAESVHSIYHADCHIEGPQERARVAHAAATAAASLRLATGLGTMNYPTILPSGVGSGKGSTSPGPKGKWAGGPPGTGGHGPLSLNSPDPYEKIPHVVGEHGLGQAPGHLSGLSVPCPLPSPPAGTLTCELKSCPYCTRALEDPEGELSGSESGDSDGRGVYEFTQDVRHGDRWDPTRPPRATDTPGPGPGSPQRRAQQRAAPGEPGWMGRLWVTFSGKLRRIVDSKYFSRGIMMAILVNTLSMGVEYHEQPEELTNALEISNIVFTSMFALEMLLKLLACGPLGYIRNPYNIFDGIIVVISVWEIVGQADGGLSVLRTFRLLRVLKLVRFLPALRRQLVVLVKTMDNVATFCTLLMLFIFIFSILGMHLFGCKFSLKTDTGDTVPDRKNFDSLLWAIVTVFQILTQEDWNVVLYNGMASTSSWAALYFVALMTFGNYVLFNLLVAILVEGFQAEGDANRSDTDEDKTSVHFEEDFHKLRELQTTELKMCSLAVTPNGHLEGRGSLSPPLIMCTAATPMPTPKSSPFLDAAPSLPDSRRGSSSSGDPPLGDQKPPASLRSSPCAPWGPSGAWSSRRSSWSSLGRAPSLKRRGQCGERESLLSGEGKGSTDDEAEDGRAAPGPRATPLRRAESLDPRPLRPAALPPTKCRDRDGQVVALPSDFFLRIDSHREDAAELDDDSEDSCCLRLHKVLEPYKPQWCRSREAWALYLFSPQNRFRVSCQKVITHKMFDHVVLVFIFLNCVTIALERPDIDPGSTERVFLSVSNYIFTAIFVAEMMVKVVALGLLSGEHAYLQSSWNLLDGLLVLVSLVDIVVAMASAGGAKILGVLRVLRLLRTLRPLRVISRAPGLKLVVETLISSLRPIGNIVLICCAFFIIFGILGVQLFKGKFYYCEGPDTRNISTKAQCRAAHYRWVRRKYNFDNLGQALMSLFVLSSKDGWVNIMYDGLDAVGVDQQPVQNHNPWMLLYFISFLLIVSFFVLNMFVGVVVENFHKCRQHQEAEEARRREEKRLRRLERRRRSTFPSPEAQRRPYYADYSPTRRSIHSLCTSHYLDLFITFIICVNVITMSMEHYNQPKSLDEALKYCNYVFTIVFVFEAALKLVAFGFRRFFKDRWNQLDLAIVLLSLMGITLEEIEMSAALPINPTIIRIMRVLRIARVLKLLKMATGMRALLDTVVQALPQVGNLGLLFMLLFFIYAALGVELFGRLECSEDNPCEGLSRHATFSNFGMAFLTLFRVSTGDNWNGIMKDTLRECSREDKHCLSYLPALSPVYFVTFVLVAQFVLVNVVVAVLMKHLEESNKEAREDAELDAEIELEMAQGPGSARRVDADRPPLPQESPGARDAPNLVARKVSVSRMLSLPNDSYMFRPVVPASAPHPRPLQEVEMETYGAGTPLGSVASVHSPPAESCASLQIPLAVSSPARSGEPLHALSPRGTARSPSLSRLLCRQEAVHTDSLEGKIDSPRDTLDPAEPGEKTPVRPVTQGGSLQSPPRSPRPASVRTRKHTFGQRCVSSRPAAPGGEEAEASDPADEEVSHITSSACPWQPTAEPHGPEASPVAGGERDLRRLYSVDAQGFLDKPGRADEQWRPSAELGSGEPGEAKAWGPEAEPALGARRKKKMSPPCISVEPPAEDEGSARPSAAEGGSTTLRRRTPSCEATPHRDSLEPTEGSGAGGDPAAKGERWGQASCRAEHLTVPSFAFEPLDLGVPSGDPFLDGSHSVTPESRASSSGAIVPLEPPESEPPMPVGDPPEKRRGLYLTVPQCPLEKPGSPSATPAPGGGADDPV

T1 sequence (P34972 whole entry): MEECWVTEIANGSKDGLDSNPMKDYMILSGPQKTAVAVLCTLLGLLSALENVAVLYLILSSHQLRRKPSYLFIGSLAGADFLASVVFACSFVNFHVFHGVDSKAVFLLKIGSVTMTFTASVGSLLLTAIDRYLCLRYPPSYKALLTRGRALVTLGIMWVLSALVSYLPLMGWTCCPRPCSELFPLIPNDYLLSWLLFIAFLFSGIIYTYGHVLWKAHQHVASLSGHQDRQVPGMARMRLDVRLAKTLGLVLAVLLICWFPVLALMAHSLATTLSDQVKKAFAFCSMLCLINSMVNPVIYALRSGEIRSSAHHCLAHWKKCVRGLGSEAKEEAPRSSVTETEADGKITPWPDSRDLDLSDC
T2 sequence (O43497 whole entry): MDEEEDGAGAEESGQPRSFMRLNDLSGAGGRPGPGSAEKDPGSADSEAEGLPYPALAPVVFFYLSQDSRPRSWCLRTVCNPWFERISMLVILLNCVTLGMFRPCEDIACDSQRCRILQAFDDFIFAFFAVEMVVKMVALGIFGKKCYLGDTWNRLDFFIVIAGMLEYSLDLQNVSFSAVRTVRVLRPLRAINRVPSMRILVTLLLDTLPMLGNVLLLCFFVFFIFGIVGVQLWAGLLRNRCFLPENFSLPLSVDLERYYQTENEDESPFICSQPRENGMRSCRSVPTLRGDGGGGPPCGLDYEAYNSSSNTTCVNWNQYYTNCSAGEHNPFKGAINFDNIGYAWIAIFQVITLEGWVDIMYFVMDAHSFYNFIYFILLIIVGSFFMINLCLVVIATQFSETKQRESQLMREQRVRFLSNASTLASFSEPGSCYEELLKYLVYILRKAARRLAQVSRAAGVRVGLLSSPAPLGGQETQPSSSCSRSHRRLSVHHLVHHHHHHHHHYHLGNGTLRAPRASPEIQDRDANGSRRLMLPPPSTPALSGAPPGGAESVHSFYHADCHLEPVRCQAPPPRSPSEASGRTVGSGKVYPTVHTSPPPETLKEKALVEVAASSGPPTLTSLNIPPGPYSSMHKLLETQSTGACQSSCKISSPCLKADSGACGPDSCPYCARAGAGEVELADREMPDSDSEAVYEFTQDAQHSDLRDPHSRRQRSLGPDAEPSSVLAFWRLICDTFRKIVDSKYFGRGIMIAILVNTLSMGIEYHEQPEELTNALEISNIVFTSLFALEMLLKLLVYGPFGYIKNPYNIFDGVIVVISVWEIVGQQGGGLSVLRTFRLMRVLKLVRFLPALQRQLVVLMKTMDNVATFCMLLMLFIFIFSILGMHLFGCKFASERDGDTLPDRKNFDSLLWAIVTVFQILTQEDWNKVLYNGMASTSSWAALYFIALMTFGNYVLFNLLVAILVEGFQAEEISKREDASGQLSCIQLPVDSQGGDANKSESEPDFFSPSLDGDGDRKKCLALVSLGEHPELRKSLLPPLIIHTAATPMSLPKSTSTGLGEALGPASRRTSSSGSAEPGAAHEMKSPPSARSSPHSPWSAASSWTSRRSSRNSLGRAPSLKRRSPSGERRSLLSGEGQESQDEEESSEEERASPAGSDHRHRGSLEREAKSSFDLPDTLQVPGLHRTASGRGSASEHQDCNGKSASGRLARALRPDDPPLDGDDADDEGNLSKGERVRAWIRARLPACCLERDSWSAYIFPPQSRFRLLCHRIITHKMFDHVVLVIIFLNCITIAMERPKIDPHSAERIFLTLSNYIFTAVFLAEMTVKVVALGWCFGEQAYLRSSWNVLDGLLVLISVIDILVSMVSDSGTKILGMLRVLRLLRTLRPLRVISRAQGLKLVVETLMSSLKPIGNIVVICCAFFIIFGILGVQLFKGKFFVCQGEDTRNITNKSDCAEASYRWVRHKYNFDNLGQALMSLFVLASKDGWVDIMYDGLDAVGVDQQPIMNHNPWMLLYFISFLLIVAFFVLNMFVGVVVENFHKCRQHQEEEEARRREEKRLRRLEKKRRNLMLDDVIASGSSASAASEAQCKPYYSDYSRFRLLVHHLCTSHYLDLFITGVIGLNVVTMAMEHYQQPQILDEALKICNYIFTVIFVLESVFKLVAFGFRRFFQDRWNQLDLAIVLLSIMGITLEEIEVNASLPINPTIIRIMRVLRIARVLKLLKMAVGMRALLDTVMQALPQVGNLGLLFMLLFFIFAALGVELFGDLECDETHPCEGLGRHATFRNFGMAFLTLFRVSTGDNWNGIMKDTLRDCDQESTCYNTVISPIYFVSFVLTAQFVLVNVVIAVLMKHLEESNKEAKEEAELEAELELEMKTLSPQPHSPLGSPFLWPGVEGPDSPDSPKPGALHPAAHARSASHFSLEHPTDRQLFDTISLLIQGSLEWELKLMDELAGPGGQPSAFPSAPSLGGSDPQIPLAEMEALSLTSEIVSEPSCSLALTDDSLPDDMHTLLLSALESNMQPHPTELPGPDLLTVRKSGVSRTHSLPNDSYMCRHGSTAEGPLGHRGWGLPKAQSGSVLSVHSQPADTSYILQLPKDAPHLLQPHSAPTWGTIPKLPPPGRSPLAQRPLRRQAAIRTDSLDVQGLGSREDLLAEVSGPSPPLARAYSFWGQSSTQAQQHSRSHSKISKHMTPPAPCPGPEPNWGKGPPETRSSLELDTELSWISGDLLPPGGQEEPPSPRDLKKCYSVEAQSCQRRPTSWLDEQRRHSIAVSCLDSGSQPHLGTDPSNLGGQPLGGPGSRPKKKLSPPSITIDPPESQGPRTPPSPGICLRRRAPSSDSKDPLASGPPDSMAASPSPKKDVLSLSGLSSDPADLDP

## CCCCCn1c2ccccc2c2cc(C(=O)OCCN(C)C)ccc21 [NMP-181]
[1]
  Ki: 0.123 ± 0.028 µM
[2]
  whole-cell patch clamp, 10 μM NMP-181, tsA-201 cells transiently expressing huma: the degree of inhibition was similar for all three CaV3 isoforms
[3]
  IC50: 4.6 µM
